Measured values: patent US8562669B2, “Methods of application of coatings composed of hydrophobic, high glass transition polymers with tunable drug release rates” (Abbott Cardiovascular Systems Inc., priority 2008, dated 2013)

Experiment: Cumulative drug release at 24 hours from coated stents (USP type 7 tester, porcine serum)
Assay type: physicochemical
Conditions: stent coating of everolimus and 75:25 PLGA
Description: As used herein, any measurement of drug release, for example without limitation, release rate, release duration, or substantially released, refers to the an in-vitro measurement using a United States Pharmacopeia Type VII apparatus, using porcine serum with sodium azide optionally added (0.1% w/v) at a temperature of 37° C.
All stents were cleaned by being sonicated in isopropyl alcohol. Stents were coated with a primer layer of approximately 51 μg of 75:25 PLGA (poly(D,L-lactide-co-glycolide) provided by Boehringer Ingelheim, grade RG755S) by spraying from a solution of 2 weight % polymer in 90:10 acetone:methyl isobutyl ketone (w/w). More than one pass under the coater was required to obtain the target weight of polymer on the stent. The spraying operation was carried out with a custom made spray coater equipped with a spray nozzle, a drying nozzle, and a means to rotate and translate the stent under the nozzles with the processing parameters outlined in Table 1. Subsequent to coating, all stents were baked in a forced air convection oven at 140° C. for 30 minutes. […] More than one pass under the coater was required to obtain the target weight of polymer on the stent. The spraying operation was carried out with the same coater used for the primer spraying with the following parameters outlined in Table 2. After the drug layer coating, the stents were baked in a force air convection oven at 50° C. for 1 hour. After baking the coating, the stents were crimped onto 3.0×12 mm XIENCE V catheters, placed in protective tubular coils, and then sealed in Argon filled foil pouches. The stents were not sterilized. Cumulative release of the drug everolimus at 24 hours was determined using a United States Pharmacopeia type 7 tester in porcine serum with sodium azide 0.1% (w/v) added as the dissolution media. Everolimus released into solution was determined by HPLC analysis on the amount of drug remaining on the stent. The cumulative release expressed is one minus the fractional amount of drug remaining divided by the theoretical quantity or dose of drug per stent. In this experiment, the same drug to polymer ratio and the same polymer and drug were used but the spray coating was accomplished with different solvents. In one set of stents, the solvent was 100% acetone while for other stents the solvent was a 50:50 (w/w) mixture of acetone and methyl isobutyl ketone. The cumulative release as measured of drug after 24 hours for n=3 stents is illustrated in FIG. 1.
Stents were cleaned, coated with a primer of 75/25 PLGA, and then coated with a drug layer as described in Example 1 except that the drug to polymer ratio was 1:2 (and therefore the % solids in the coating solution was 3% (w/w)). […]

With `CO[C@H]1C[C@@H]2CC[C@@H](C)[C@@](O)(O2)C(=O)C(=O)N2CCCC[C@H]2C(=O)O[C@H]([C@H](C)C[C@@H]2CC[C@@H](OCCO)[C@H](OC)C2)CC(=O)[C@H](C)/C=C(\C)[C@@H](O)[C@@H](OC)C(=O)[C@H](C)C[C@H](C)/C=C/C=C/C=C/1C` [everolimus] the “cumulative release at 24 hours” value (drug:polymer 1:1, sprayed from 50:50 (w/w) acetone:methyl isobutyl ketone, 37° C.) was “about 96%”, the “cumulative release at 24 hours” value (drug:polymer 1:1, sprayed from 100% acetone, 37° C.) was “about 23%” and the “cumulative release at 24 hours” value (drug:polymer 1:2 as printed, sprayed from 50:50 (w/w) acetone:dimethyl acetamide) was “about 42%”. The “cumulative release at 24 hours” value (drug:polymer 1:2 as printed, sprayed from 50:50 acetone:methyl isobutyl ketone) was “about 83%”.
